Results from PMC11327220 (Bioscience Reports, 2024).
“And” between values parts separate entries of the source, which are not always exact repeats. Equal values may be shown once. Read-outs that look alike come from different tables or passages of the source.

Assays:
SARS-CoV-2 3CLpro [1] = biological target: T1, SARS-CoV-2 3CLpro (Severe acute respiratory syndrome coronavirus 2, UniProt P0DTD1); assay: biochemical; type: biochemical
3CLpro = 3CLpro (Severe acute respiratory syndrome coronavirus 2, UniProt P0DTD1); type: binding, SARS-CoV-2
[2] = tested on: SARS-CoV-2 (ancestral strain A2.2); assay: microbe, parasite or virus in culture; type: cell-based; conditions: Severe acute respiratory syndrome coronavirus 2, HEK-293T, read-out: IC50 in the live virus assay
MERS 3CLpro = MERS 3CLpro (Middle East respiratory syndrome-related coronavirus, UniProt K9N7C7); assay: biochemical
Chain of MERS 3CLpro (K9N7C7 3248-3553 limits assumed): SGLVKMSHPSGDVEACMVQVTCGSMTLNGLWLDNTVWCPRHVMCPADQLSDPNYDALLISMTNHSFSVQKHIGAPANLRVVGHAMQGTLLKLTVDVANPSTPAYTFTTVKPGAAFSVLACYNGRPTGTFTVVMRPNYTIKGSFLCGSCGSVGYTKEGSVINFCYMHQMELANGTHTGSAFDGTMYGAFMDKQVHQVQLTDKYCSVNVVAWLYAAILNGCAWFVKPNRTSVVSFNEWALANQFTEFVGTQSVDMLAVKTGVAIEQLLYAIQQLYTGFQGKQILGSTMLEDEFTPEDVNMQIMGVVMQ

SARS-CoV-1 3CLpro = SARS-CoV-1 3CLpro (Severe acute respiratory syndrome coronavirus, UniProt P0C6X7); assay: biochemical
SARS-CoV-2 3CLpro [3] = biological target: T1, SARS-CoV-2 3CLpro; assay: Inhibition kinetics of luteolin (competitive inhibition fit); type: biochemical
[4] = read-out: IC50 of micronutrients against 3CLpro
[5] = additive in the absence of luteolin
[6] = one additive: 100 µM luteolin, 3.5 mM magnesium, 2.3 mM manganese, 0.3 mM zinc or 0.3 mM vitamin C, free enzyme 133 ± 4
[7] = 2.3 mM manganese, 3.5 mM magnesium or 0.3 mM vitamin C, no luteolin
[8] = 0.3 mM vitamin C in the presence of 100 µM luteolin
[9] = versus luteolin without micronutrients

Compound: [Ca+2].[Cl-].[Cl-] [CaCl2]
- IC50 (SARS-CoV-2 3CLpro [1]; [4]): 1900 ± 200 µM

Compound: O=c1c2ccccc2[se]n1-c1ccccc1 [Ebselen, reference compound]
- percentage inhibition of SARS-CoV-2 3CLpro (SARS-CoV-2 3CLpro [1]): completely inhibits

Compound: [Cl-].[Cl-].[Mg+2] [MgCl2]
- IC50 (SARS-CoV-2 3CLpro [1]; [4]): 24000 ± 1100 µM
- Tm of the first transition (Tm1) of 3CLpro (3CLpro): 35 ± 0.3 °C
- Tm of the second transition (Tm2) of 3CLpro (3CLpro): 45 ± 0.5 °C
- fold increase of ΔHcal over free 3CLpro (3CLpro; [5]): 2 fold
- calorimetric enthalpy (ΔHcal) of unfolding of 3CLpro (3CLpro; [6]): 63.1 ± 3.59 kcal/mol

Compound: [Cl][Mn][Cl] [MnCl2]
- IC50 (SARS-CoV-2 3CLpro [1]; [4]): 2300 ± 200 µM
- Tm of the first transition (Tm1) of 3CLpro (3CLpro; [7]): 35 ± 0.3 °C
- Tm of the second transition (Tm2) of 3CLpro (3CLpro; [7]): 45 ± 0.5 °C
- fold increase of ΔHcal over free 3CLpro (3CLpro; [5]): 3 fold
- calorimetric enthalpy (ΔHcal) of unfolding of 3CLpro (3CLpro; [6]): 85.1 ± 10.8 kcal/mol

Compound: O=C1O[C@H]([C@@H](O)CO)C(O)=C1O [Vitamin C, L-ascorbate]
- IC50 (SARS-CoV-2 3CLpro [1]): 800 ± 20 µM
- Tm of the first transition (Tm1) of 3CLpro (3CLpro): 34 °C
- Tm of the second transition (Tm2) of 3CLpro (3CLpro): 45 ± 0.7 °C
- calorimetric enthalpy (ΔHcal) of unfolding of 3CLpro (3CLpro; [8]): 307.8 ± 32.58 kcal/mol
- fold increase of ΔHcal over free 3CLpro (3CLpro; [8]): 10 fold
- Tm of the late transition (Tm3) of 3CLpro (3CLpro; 0.3 mM vitamin C, no luteolin): 56 ± 0.2 °C
- fold increase of ΔHcal over free 3CLpro (3CLpro; [5]): 8 fold
- calorimetric enthalpy (ΔHcal) of unfolding of 3CLpro (3CLpro; [6]): 247.1 ± 13.9 kcal/mol

Compound: [Cl-].[Cl-].[Zn+2] [ZnCl2]
- IC50 (SARS-CoV-2 3CLpro [1]; [4]): 1100 ± 200 µM
- decrease of Tm compared with apo-3CLpro (3CLpro): approximately 6 °C
- melting point (Tm) of 3CLpro, single transition (3CLpro): 41 ± 0.4 °C
- fold increase of ΔHcal over free 3CLpro (3CLpro; [5]): 4 fold
- calorimetric enthalpy (ΔHcal) of unfolding of 3CLpro (3CLpro; [6]): 108 ± 12 kcal/mol

Compound: O=c1cc(-c2ccc(O)c(O)c2)oc2cc(O)cc(O)c12 [luteolin, 2-(3,4-dihydroxyphenyl)-5,7-dihydroxy-4H-chromen-4-one]
- fold decrease of the IC50 of luteolin with the combination of vitamin C and magnesium (SARS-CoV-2 3CLpro [1]): 3 fold
- fold decrease of the IC50 of luteolin with the combination of zinc and magnesium (SARS-CoV-2 3CLpro [1]): 2 fold
- IC50 (SARS-CoV-2 3CLpro [1]; 2 µM 3CLpro, 60 µM peptide substrate, absence of micronutrients): 78 µM
- inhibition at 25 µM (SARS-CoV-2 3CLpro [1]; read-out: percentage inhibition of SARS-CoV-2 3CLpro): 41%
- fold decrease of the IC50 of luteolin in the presence of magnesium (SARS-CoV-2 3CLpro [1]; [9]): 1.7 fold and 2 fold
- fold decrease of the IC50 of luteolin in the presence of magnesium, zinc, and vitamin C (SARS-CoV-2 3CLpro [1]; [9]): 10 fold
- fold increase of the IC50 of luteolin in the presence of calcium (SARS-CoV-2 3CLpro [1]; [9]): 2 fold
- fold increase of the IC50 of luteolin in the presence of zinc (SARS-CoV-2 3CLpro [1]; [9]): 2 fold
- melting point (Tm) of 3CLpro, single transition (3CLpro; 25 μM 3CLpro with 100 µM luteolin or 0.3 mM zinc, apo-3CLpro 46.7 ± 0.1): 46.7 ± 0.1 °C
- effect of adding luteolin on the thermograms of 3CLpro in the presence of metal ions (3CLpro; 100 µM luteolin with metal ions): minimal effect
- calorimetric enthalpy (ΔHcal) of unfolding of 3CLpro (3CLpro; [6]): 24.1 ± 3.59 kcal/mol
- IC50 [2]: 90 ± 11 µM
- IC50 (MERS 3CLpro): 388 ± 59 µM
- IC50 (SARS-CoV-1 3CLpro): 711 ± 130 µM
- Ki (SARS-CoV-2 3CLpro [3]): 93 ± 12 µM
- fold increase of Ka over Km of the peptide substrate in the absence of inhibitor (SARS-CoV-2 3CLpro [3]; in the presence of luteolin): ~6 fold
- apparent Michaelis constant (Ka) for the peptide substrate in the presence of luteolin (SARS-CoV-2 3CLpro [3]; luteolin 40-400 µM, Km without inhibitor 66 ± 7 µM): 406 ± 48 µM
- inhibition pattern (SARS-CoV-2 3CLpro [3]; luteolin versus the peptide substrate): competitive inhibition
